Measurements taken from US7745493B2, “Methods of treating tardive dyskinesia and other movement disorders” (priority 1998, dated 2010).

Legend:
[1] = tested on: person two with long-standing TD; assay: Choice Reaction Time (Case 1); type: in vivo, human; details: lower score better
Source text: (§1) The tests showing such results included Simple Reaction Time, the Trail Making Test (both parts) and the Paced Auditory Serial Addition Test (PASAT). Choice reaction time, a test requiring both basic attention and concentration on a specific task that must be kept in mind, was slightly better on acamprosate, consistent with the hypothesis that general cognitive function, as opposed to simple attention, improves with acamprosate treatment.
(§2) The following tables report on the results of the neuropsychological tests (Drug I is memantine and Drug II is acamprosate): […]

[2] = tested on: person two with long-standing TD; assay: Paced Auditory Serial Addition Test (PASAT) (Case 1); type: in vivo, human; details: lower score better
Source text: as §1, §2

[3] = tested on: person two with long-standing TD; assay: Trail Making Test, Trails A (Case 1); type: in vivo, human; details: lower score better
Source text: as §1, §2

[4] = tested on: person two with long-standing TD; assay: Motor Functions: Grooved Functions (Case 1); type: in vivo, human; details: ON drug, lower score better; for Grooved Functions sec. DH: DH = right
Source text: as §2

[5] = tested on: person one with long-standing TD; assay: Case Report 2: clinical observation of TD; type: in vivo, human; details: Case 2; for effect on involuntary movements of TD: acamprosate 666 mg three times daily added to memantine, magnesium oxide 250 mg three times a day added to acamprosate; for cognitive symptoms / memory: subjective
Source text: person one had long-standing TD following decades of treatment with the neuroleptic drug perphenazine. Their involuntary movements comprised bilateral chorea of the upper extremities, plus writhing of the tongue and tongue-biting. Both of the latter movements led to a very sore tongue. In addition, the patient experienced impairment of their short-term memory, which was attributed primarily to cerebrovascular disease.
They also continued to have a sore tongue. […] In addition to memantine, the patient regularly took antiepileptic drugs (gabapentin and lamotrigine), antiplatelet agents (aspirin and ticlopidine), as well as medications for hypertension, glaucoma and gastrointestinal symptoms (isosorbide mononitrate, metoprolol, timolol eye drops and olsalazine).
The patient was placed on a treatment regime that included administration of 666 mg of acamprosate, three times daily. In this case, acamprosate was added to the patient's regimen, which continued to include memantine. […] Despite past evidence from formal testing that the patient had impaired short-term memory, they performed normally on a two-sentence memory task, which involved testing the patient's recall ability using two sentences containing 13 separate details. On the two-sentence memory task, within three attempts the patient was able to recall 9 details and, using a multiple choice format, was able to recall a total of 11 details. Recall of 9 details on the third attempt would be normal for a middle-aged adult, let alone one […].
After a full year on memantine and acamprosate, the memantine was discontinued, with little change in the patient's symptoms.
Magnesium oxide, 250 mg three times a day, was added, each dose being taken together with the acamprosate. […] The effect was definite: movements worsened when magnesium oxide was stopped and improved when it was restarted. After a month on magnesium, the dosage of acamprosate was increased to 666 mg four times a day, with 250 mg of magnesium oxide given together with each dose. […] The only residual sign of TD was a mild degree of involuntary movement of the hands.

[6] = tested on: person two with Parkinson's disease and peak-dose dyskinesia; assay: Case Report 3: peak-dose dyskinesia of treated Parkinson's disease; type: in vivo, human; details: Case 3; for effect on peak-dose dyskinesia: added to antiparkinson regime, memantine 10 mg three times a day, acamprosate 666 mg three times, then 333 mg four times a day, baclofen 30 and 60 mg daily, magnesium 300 mg three times a day
Procedure: The patient's Parkinson's disease was treated using levodopa/carbidopa and bromocriptine.
Prior to beginning treatment with acamprosate, the patient was on an antiparkinson treatment regime that consisted of 1 mg of pergolide three times a day, 5 mg of selegiline twice a day, and a combination of levodopa/carbidopa consisting of 550-600 mg of levodopa and 125-150 mg of carbidopa administered in divided doses.
The patient began acamprosate as an addition to the antiparkinson regime described above. Initially, the patient received 666 mg of acamprosate administered three times a day. Two weeks later the regime was adjusted such that the patient received 333 mg of acamprosate four times a day, taking one 333 mg pill with each daytime dose of 100 mg levodopa and 25 mg carbidopa. The patient's bedtime does of controlled-release levodopa-carbidopa (200 mg of levodopa and 50 mg of carbidopa) was continued, but were given without acamprosate. […] To confirm that the patient's improvement was due to the administration of acamprosate, the patient was taken off the acamprosate. […] During the period off acamprosate, an attempt was made to replace acamprosate with baclofen (a GABA-receptor agonist) at a total daily dose of 30 mg, and then with baclofen at a total daily dose of 60 mg.
Several months later, magnesium (300 mg elemental magnesium, as a mixed chelate), was added to the regimen. It was taken three times a day, together with a one of the patient's regular doses of levodopa/carbidopa. […] To establish whether the improvement was due to magnesium, the magnesium was stopped after several weeks.

[7] = tested on: person two with chronic schizophrenia and severe tardive dyskinesia; assay: Case Report 6: clinical observation of severe TD with blepharospasm in chronic schizophrenia; type: in vivo; details: Case 6
Source text: A corresponding physician the United Kingdom recently reported to me on the treatment of a person with chronic schizophrenia and severe tardive dyskinesia. As in Case 1, the patient's involuntary movements included severe blepharospasm. In addition, they had involuntary rhythmic peri-oral movements, and chorea-like movements of both hands, like the patient in Case 2. They had no cognitive complaints, nor were cognitive abnormalities noted on routine psychiatric examination.
The patient had developed symptoms of paranoid schizophrenia in 1991. The symptoms of psychosis included auditory hallucinations, bizarre delusions, and persecutory fears. […] They were subsequently hospitalized and stabilized on fluphenthixol decanoate, a depot neuroleptic given by intramuscular injections. Symptoms of TD developed in November, 1994, after 28 months of neuroleptic therapy. […] Beginning in October 1997 the patient was treated for their schizophrenia with 2 mg of risperidone alone. On this modest dose of an atypical neuroleptic, they had severe symptoms of TD for which they eagerly sought treatment.
Memantine was started on November 28, 1997 at a dose of 5 mg per day, increased after 7 days to 5 mg twice a day, and after another 7 days to 5 mg three times a day. […] Further dosage increases were attempted to completely abolish the involuntary movements. The maximum dose attainable without side effects was 10 mg twice a day; above that level the patient had complaints of dizziness. That dose of memantine was maintained through May of […].
In May 1998 the patient was started on acamprosate, in pursuit of complete elimination of their involuntary movements. Initially, acamprosate 333 mg three times a day was added to memantine 10 mg twice a day.

Q: For `CC(=O)NCCCS(=O)(=O)O` [acamprosate, calcium N-acetylhomotaurinate], which “Choice Reaction Time 500 Green” value ([1]; ON drug) is on record?
A: 382 ms

Q: What about the “Choice Reaction Time 500 Red” value ([1]; ON drug) of the same compound?
A: 426 ms

Q: And the “Choice Reaction Time 1500 Green” value ([1]; ON drug)?
A: 408 ms

Q: What about the “Choice Reaction Time 1500 Red” value ([1]; ON drug) of the same compound?
A: 379 ms

Q: What about the “PASAT 1.2 sec ISI errors” value ([2]; ON drug) of the same compound?
A: 13/49

Q: What about the “PASAT 1.6 sec ISI errors” value ([2]; ON drug) of the same compound?
A: 11/49

Q: And the “PASAT 2.0 sec ISI errors” value ([2]; ON drug)?
A: 1/49

Q: What about the “PASAT 2.4 sec ISI errors” value ([2]; ON drug) of the same compound?
A: 4/49

Q: What about the “Trails A Errors” value ([3]; ON drug) of the same compound?
A: 0

Q: What about the “Trails A Seconds” value ([3]; ON drug) of the same compound?
A: 20″

Q: What about the “Grooved Functions sec. DH” value [4] of the same compound?
A: DH = 61″

Q: And the “Grooved Functions sec. NDH” value [4]?
A: NDH = 70″

Q: What about the “persistent symptoms on acamprosate after memantine discontinued” value ([5]; 666 mg three times a day) of the same compound?
A: mild choreatic movements on the hands, mild involuntary movements of the tongue and jaw

Q: What about the “effect on involuntary movements of TD” value [5] of the same compound?
A: chorea and tongue-biting stopped completely

Q: What about the “cognitive symptoms / memory” value [5] of the same compound?
A: memory improved

Q: What about the “effect on levodopa/carbidopa treatment of hypokinesia and rigidity” value [6] of the same compound?
A: no decrease in the efficacy

Q: And the “periods without dyskinesia following each dose” value [6]?
A: up to two hours

Q: What about the “time to return of dyskinetic movements after stopping” value [6] of the same compound?
A: Within one day

Q: And the “effect on peak-dose dyskinesia” value [6]?
A: reduced from moderate to mild intensity

Q: And the peri-oral movements ([7]; 333 mg three times a day added to memantine 10 mg twice a day)?
A: peri-oral movements were eliminated

Q: What about the “involuntary movements on acamprosate alone” value ([7]; after memantine discontinued) of the same compound?
A: continued free of involuntary movements

Q: Which “Choice Reaction Time 500 Green” value [1] does the source give for `CC12CC3CC(C)(C1)CC(N)(C3)C2` [memantine] here?
A: 362 ms

Q: What about the “Choice Reaction Time 500 Red” value [1] of the same compound?
A: 421 ms

Q: And the “Choice Reaction Time 1500 Green” value [1]?
A: 365 ms

Q: What about the “Choice Reaction Time 1500 Red” value [1] of the same compound?
A: 422 ms

Q: What about the “PASAT 1.2 sec ISI errors” value [2] of the same compound?
A: 28/49

Q: And the “PASAT 1.6 sec ISI errors” value [2]?
A: 21/49

Q: And the “PASAT 2.0 sec ISI errors” value [2]?
A: 17/49

Q: And the “PASAT 2.4 sec ISI errors” value [2]?
A: 13/49

Q: And the “Trails A Errors” value [3]?
A: 0

Q: And the “Trails A Seconds” value [3]?
A: 28″

Q: What about the “Grooved Functions sec. DH” value [4] of the same compound?
A: DH = 71″

Q: What about the “Grooved Functions sec. NDH” value [4] of the same compound?
A: NDH = 70″

Q: And the “effect on involuntary movements of TD” value [5]?
A: improved, but continued at a mild-to-moderate level

Q: What about the “cognitive symptoms / memory” value [5] of the same compound?
A: did not improve

Q: And the “effect on peak-dose dyskinesia” value [6]?
A: reduced their dyskinetic movements from severe to mild-to-moderate

Q: And the “maximum dose attainable without side effects” value [7]?
A: 10 mg twice a day

Q: What about the involuntary movements ([7]; 5 mg three times a day) of the same compound?
A: virtually no involuntary movements noted at the peak of a given dose

Q: And the “blepharospasm after first two weeks” value ([7]; 5 mg twice a day)?
A: marked improvement in blepharospasm

Q: And the “involuntary movements after 6 months of treatment” value ([7]; 10 mg twice a day)?
A: no blepharospasm or limb chorea, and only mild peri-oral movements

Q: What about the “complaints above maximum tolerated dose” value ([7]; above 10 mg twice a day) of the same compound?
A: dizziness
